Consider 1 compound from US5747545A, “Method of preventing NMDA receptor complex-mediated Neuronal damage” (priority 1995, dated 1998).

Assay [1] has as its system cerebral cortical infarct (rat pups). As to the kind of experiment: Bilateral carotid ligation plus hypoxia stroke model in rat pups pretreated with NTG patches. The class given is in vivo. The procedure:
Rat pups were treated with nitroglycerin (NTG) approximately for 36-48 hours before performing bilateral carotid ligations. The dosing regimen for the 3 groups of rat pups used to generate the data was as follows.
Hair was removed from the abdominal region of the rat pup using a razor. One-quarter of a NTG patch (Minitran) was applied to the shaved area. A quarter patch of this size corresponds to a dose of 0.6 mg/24 hours (whole patch 2.4 mg/24 hr). Between 12 and 16 hours later, another quarter-patch was applied to the rat's abdomen, leaving the first on. This procedure was again repeated 12-16 hours later. Each rat pup received 3 or 4 quarter patches before surgery, which was performed two days later and consisted of bilateral carotid ligation followed by hypoxia to induce a stroke.
Using this procedure of inducing NTG systemic tolerance, the following results were obtained: In the control group, 7/11 (64%) of the animals suffered large ([…]) cerebral cortical infarcts. In contrast, in the NTG-treated group, only 2/13 (15%) of the animals had any discernible cerebral infarct at all (P<0.03 by Fisher's exact test).
Animals are operated on (to induce a stroke) approximately 48 hr after the initial administration of NTG patches.

Assay [2] relates to NMDA receptor (rat cortical neurons in culture). As to the kind of experiment: Digital fura-2 imaging of NMDA-evoked intracellular [Ca2+] in cultured cortical neurons. Type of assay: cell-based, rat (Sprague-Dawley). To be noted: 50 μM NMDA; Examples 1-2; NTG 100 μM in Example 2. As for the experimental part: The concentration of intracellular free Ca^2+ ([Ca^2+ ]i) is measured in neonatal cortical neurons by digital imaging microscopy with the Ca^2+ sensitive fluorescent dye fura 2, as follows. The same cortical neuronal cultures as described above are used. During Ca^2+ measurements, unless otherwise stated the fluid bathing the neurons consists of Hanks' balanced salts: 137.6 mM NaCl, 1 mM NaHCO3, 0.34 mM Na2 HPO4, 0.44 mM KH2 PO4, 5.36 mM KCl, 1.25 mM CaCl2, 0.5 mM MgSO4, 0.5 mM MgCl2, 5 mM Hepes NaOH, 22.2 mM glucose, and sometimes with phenol red indicator (0.001% v/v); pH 7.2. NMDA (in the absence Mg^++), glutamate, and other substances are usually applied to the neurons by pressure ejection after dilution in this bath solution. Neuronal [Ca^2+ ]i is analyzed with fura 2-acetoxy-methyl ester (AM) as described [Grynkiewicz, et al., J. Biol. Chem. 260:3440 (1985); Williams et al., Nature 318:558 (1985); Connor et al., J. Neurosci. 7:1384 (1987); Connor et al., Science 240:649 (1988); Cohan et al., J. Neurosci. 7:3588 (1987); Mattson, et al., ibid, 9:3728 (1989)]. After adding Eagle's minimum essential medium containing 10 μM fura 2-AM to the neurons, the cultures are incubated at 37° C. in a 5% CO2 /95% air humidified chamber and then rinsed. The dye is loaded, trapped, and deesterified within 1 hour, as determined by stable fluorescence ratios and the effect of the Ca^2+ ionophore ionomycin on [Ca^2+ ]i is measured. During Ca^2+ imaging, the cells are incubated in a solution of Hepes-buffered saline with Hanks' balanced salts. The [Ca^2+ ]i is calculated from ratio images that are obtained by measuring the fluorescence at 500 nm that is excited by 350 and 380 nm light with a DAGE MTI 66 SIT or QUANTEX QX-100 Intensified CCD camera mounted on a Zeiss Axiovert 35 microscope. Exposure time for each picture is 500 ms. Analysis is performed with a Quantex (Sunnyvale, Calif.) QX7-210 image-processing system. Since cells are exposed to ultraviolet light only during data collection (generally less than a total of 20 s per cell), bleaching of fura 2 is minimal.
In this experiment, the effect of NTG on intracellular [Ca^++ ] increases induced by NMDA were followed using digital [Ca^++ ] imaging techniques, based on the dye fura-2.
Specifically, the model for NMDA-mediated neurotoxicity involves exposure of cultured rat cortical neurons to NMDA in the presence of glycine (a co-agonist).
Cortical cultures were derived from embryonic (fetal day 15 or 16) Sprague-Dawley rats as described previously (Dichter, 1978; Rosenberg and Aizenman, 1989). […]

Regarding `O=[N+]([O-])OCC(CO[N+](=O)[O-])O[N+](=O)[O-]` [NTG, 1,2,3-propanetriol trinitrate], the “Animals with any discernible cerebral infarct (number/total)” value in assay [1] (NTG patches approx. 36-48 h before bilateral carotid ligation, control 7/11 (64%) large infarcts, P<0.03 Fisher's exact test) is reported as 2/13. In assay [1] (NTG patches approx. 36-48 h before bilateral carotid ligation, control 64%, P<0.03), the “Animals with any discernible cerebral infarct (percent)” value is 15%. The Cerebral protection result in assay [1] (NTG transdermal patches, tolerance-inducing procedure) was “cerebral protective”. Moreover, the “Effect on NMDA-evoked [Ca2+]i response” value in assay [2] was “persistently decreased the NMDA-evoked [Ca^2+ ]i response”.
